In patent US6451814B1, “Heterocyclic β-3 adrenergic receptor agonists” (Wyeth, priority 2000, dated 2002):
pEC50: −log10 of the molar value. Values joined by “and” are separate entries in the source; they are usually repeats but may differ in a detail not shown here. Equal entries are not always repeated. Where two headings read alike, the source gives them in different places.

Assays:
[1] = molecular target: T1, human β3-adrenergic receptor (Homo sapiens, UniProt P13945); assay: cAMP response (SPA kit) in CHO cells transfected with human β3 adrenergic receptor; format: cell-based; conditions: for pEC50: read-out: EC50(β3); for IA(β3): maximal response of compound compared to maximal response of isoproterenol at 10^-5 M, CHO cells, human β3-AR
T1 construct: Full length β3 AR clones (402 amino acids) containing the last 6 amino acids of hβ3—AR are prepared; expressed in transfected cells; host or cells: CHO cells
T1 sequence (P13945 whole entry): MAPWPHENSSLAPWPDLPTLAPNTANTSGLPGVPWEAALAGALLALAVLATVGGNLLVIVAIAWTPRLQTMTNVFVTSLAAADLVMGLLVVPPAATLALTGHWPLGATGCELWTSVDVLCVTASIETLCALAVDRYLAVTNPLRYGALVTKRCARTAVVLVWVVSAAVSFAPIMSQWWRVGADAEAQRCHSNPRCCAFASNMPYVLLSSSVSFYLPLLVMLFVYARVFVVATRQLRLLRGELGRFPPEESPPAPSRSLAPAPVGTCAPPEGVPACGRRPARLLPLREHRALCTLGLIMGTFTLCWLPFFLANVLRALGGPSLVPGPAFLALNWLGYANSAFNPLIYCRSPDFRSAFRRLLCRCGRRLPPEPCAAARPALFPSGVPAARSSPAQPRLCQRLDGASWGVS

[2] = CHO cells expressing human β3-AR, 10^-9 M to 10^-5 M, 30 min at 37° C., cAMP by SPA

SMILES | pEC50 [1, 2] | IA(β3) [1] | melting point [°C] | EC50 ([1]; EC50(β3, μM), CHO cells expressing human β3-AR, 10^-9 M to 10^-5 M, 30 min at 37° C., cAMP by SPA) [µM]
CCCCCCCCNC(=O)N1CCC(S(=O)(=O)c2ccc(CCNC[C@H](O)COc3ccc(O)cc3)cc2)CC1 [Example 47, 4-(4-{2-[(2S)-2-Hydroxy-3-(4-hydroxy-phenoxy)-propylamino]-ethyl}-benzenesulfonyl)-piperidine-1-carboxylic Acid Octylamide] | 7.51 | 1 | 52 to 56 | 
CCCCCC(=O)N1CCC(Nc2ccc(CCNC[C@H](O)COc3ccc(O)cc3)cc2)CC1 [Example 103, 1-[4-(4-{2-[(2S)-2-Hydroxy-3-(4-hydroxy-phenoxy)-propylamino]-ethyl}-phenylamino)-piperidin-1-yl]-hexan-1-one] | 7.13 | 0.9 | 57 to 59 | 
CCOC(=O)C1CCN(C(=O)N2CCC(Nc3ccc(CCNC[C@H](O)c4ccc(O)c(NS(C)(=O)=O)c4)cc3)CC2)CC1 [Example 51, 1-[4-(4-{2-[(2R)-2-Hydroxy-2-(4-hydroxy-3-methanesulfonylamino-phenyl)-ethylamino]-ethyl}-phenylamino)-piperidine-1-carbonyl]-piperidine-4-carboxylic Acid Ethyl Ester] | 9.00 | 0.82 | 93 to 97 | 
O=C(NCc1cc(F)cc(F)c1)N1CCC(Nc2ccc(CCNC[C@H](O)COc3ccc(O)cc3)cc2)CC1 [Example 24, 4-(4-{2-[(2S)-2-Hydroxy-3-(4-hydroxy-phenoxy)-propylamino]-ethyl}-phenylamino)-piperidine-1-carboxylic Acid 3,5-difluoro-benzylamide] | 7.40 | 0.84 | 89 to 95 | 
CC(C)CCNC(=O)N1CCC(Nc2ccc(CCNC[C@H](O)COc3ccc(O)cc3)cc2)CC1 [Example 35, 4-(4-{2-[(2S)-2-Hydroxy-3-(4-hydroxy-phenoxy)-propylamino]-ethyl}-phenylamino)-piperidine-1-carboxylic Acid (3-methyl-butyl)-amide] | 6.88 | 0.96 | 72 to 77 | 
O=C([C@@H]1CCCN1S(=O)(=O)c1ccc(F)cc1)N1CCC(Nc2ccc(CCNC[C@H](O)COc3ccc(O)cc3)cc2)CC1 [Example 104, [(2S)-1-(4-Fluoro-benzenesulfonyl)-pyrrolidin-2-yl]-[4-(4-{2-[(2S)-2-hydroxy-3-(4-hydroxy-phenoxy)-propylamino]-ethyl}-phenylamino)-piperidin-1-yl]-methanone] | 7.07 | 0.97 | 87 to 89 | 
CS(=O)(=O)Nc1cc([C@@H](O)CNCCc2ccc(NC3CCN(c4ccc(S(=O)(=O)N5CCCCC5)cc4)CC3)cc2)ccc1O [Example 119] | 8.10 | 1.03 | 118 to 120 | 
NC(=O)N1CCC(Nc2ccc(CCNC[C@H](O)COc3ccc(O)cc3)cc2)CC1 [Example 18, 4-(4-{2-[(2S)-2-Hydroxy-3-(4-hydroxy-phenoxy)-propylamino]-ethyl}-phenylamino)-piperidine-1-carboxylic Acid Amide] |  | 1 | 84 to 89 | 
O=C(NCC(c1ccccc1)c1ccccc1)N1CCC(Nc2ccc(CCNC[C@H](O)COc3ccc(O)cc3)cc2)CC1 [Example 31, 4-(4-{2-[(2S)-2-Hydroxy-3-(4-hydroxy-phenoxy)-propylamino]-ethyl}-phenylamino)-piperidine-1-carboxylic Acid (2,2-diphenyl-ethyl)-amide] | 6.87 and 7.17 | 0.69 and 0.4 | 91 to 94 | 
Cc1ccc(CCCNC(=O)N2CCC(Nc3ccc(CCNC[C@H](O)COc4ccc(O)cc4)cc3)CC2)cc1 [Example 29, 4-(4-{2-[(2S)-2-Hydroxy-3-(4-hydroxy-phenoxy)-propylamino]-ethyl}-phenylamino)-piperidine-1-carboxylic Acid (3-p-tolyl-propyl)-amide] | 7.37 | 1 | 69 to 72 | 
CS(=O)(=O)Nc1cc([C@@H](O)CNCCc2ccc(NC3CCN(C(=O)NCc4cc(F)ccc4F)CC3)cc2)ccc1O [Example 76, 4-(4-{2-[(2R)-2-Hydroxy-2-(4-hydroxY-3-methanesulfonylamino-phenyl)-ethylamino]-ethyl}-phenylamino)-piperidine-1-carboxylic Acid 2,5-difluoro-benzylamide] |  | 1 | 116 to 118 | 
CCCCCCCCNC(=O)N1CCC(Nc2ccc(CCNC[C@H](O)COc3ccc(O)c4c3CCC(=O)N4)cc2)CC1 [Example 69, 4-(4-{2-[(2S)-2-Hydroxy-3-(8-hydroxy-2-oxo-1,2,3,4-tetrahydro-quinolin-5-yloxy)-propylamino]-ethyl}-phenylamino)-piperidine-1-carboxylicacid Octylamide] |  | 0.67 | 83 to 85 | 
COc1cc(OCCCOc2ccccc2)ccc1CCNC(=O)N1CCC(Nc2ccc(CCNC[C@H](O)COc3ccc(O)cc3)cc2)CC1 [Example 71, 4-(4-{2-[(2S)-2-Hydroxy-3-(4-hydroU-phenoxy)-propylamino]-ethyl}-phenylamino)-piperidine-1-carboxylic Acid {2-[2-methoxy-4-(3-phenoxy-propoxy)-phenyl]-ethyl}-amide] | 6.85 | 0.94 | 67 to 69 | 
O=C(NCc1ccc(F)cc1)N1CCC(Nc2ccc(OCCNC[C@H](O)COc3ccc(O)cc3)cc2)CC1 [Example 39, 4-(4-{2-[(2S)-2-Hydroxy-3-(4-hydroxy-phenoxy)-propylamino]-ethoxy}-phenylamino)-piperidine-1-carboxylic Acid 4-fluoro-benzylamide] | 7.44 | 0.9 | 73 to 77 | 
O=C(NCCCc1cccs1)N1CCC(Nc2ccc(CCNC[C@H](O)COc3ccc(O)cc3)cc2)CC1 [Example 23, 4-(4-{2-[(2S)-2-Hydroxy-3-(4-hydroxy-phenoxy)-propylamino]-ethyl}-phenylamino)-piperidine-1-carboxylic Acid (3-thiophen-2-yl-propyl)-amide] | 8.00 | 0.88 | 73 to 77 | 
CN(C)C(=O)Oc1ccc(CCNC(=O)N2CCC(Nc3ccc(CCNC[C@H](O)COc4ccc(O)cc4)cc3)CC2)cc1 [Example 74, Dimethyl-carbamic Acid 4-(2-{[4-(4-{2-[(2S)-2-hydroxy-3-(4-hydroxy-phenoxy)-propylamino]-ethyl}-phenylamino)-piperidine-1-carbonyl]-amino}-ethyl)-phenyl Ester] |  | 0.88 | 86 to 88 | 0.045
O=C(NCCc1ccc(F)cc1)N1CCC(Nc2ccc(CCNC[C@H](O)COc3ccc(O)cc3)cc2)CC1 [Example 15, 4-(4-{2-[(2S)-2-Hydroxy-3-(4-hydroxy-phenoxy)-propylamino]-ethyl}-phenylamino)-piperidine-1-carboxylic Acid [2-(4-fluoro-phenyl)-ethyl]-amide] | 7.47 | 0.91 | 73 to 77 | 
O=C(NCc1ccccc1F)N1CCC(Nc2ccc(CCNC[C@H](O)COc3ccc(O)cc3)cc2)CC1 [Example 26, 4-(4-{2-[(2S)-2-Hydroxy-3-(4-hydroxy-phenoxy)-propylamino]-ethyl}-phenylamino)-piperidine-1-carboxylic Acid 2-fluoro-benzylamide] |  | 0.91 | 79 to 84 | 
CCCCCCCCNC(=O)N1CCC(Nc2ccc(CCNC[C@H](O)COc3ccc(O)c(F)c3)cc2)CC1 [Example 65, 4-(4-{2-[(2S)-3-(3-Fluoro-4-hydroxy-phenoxy)-2-hydroxy-propylamino]-ethyl}-phenylamino)-piperidine-1-carboxylic Acid Octylamide] | 6.52 | 0.57 | 60 to 62 | 
O=C(c1cc2cccc([N+](=O)[O-])c2[nH]1)N1CCC(Nc2ccc(CCNC[C@H](O)COc3ccc(O)cc3)cc2)CC1 [Example 95, [4-(4-{2-[(2S)-2-Hydroxy-3-(4-hydroxy-phenoxy)-propylamino]-ethyl}-phenylamino)-piperidin-1-yl]-(7-nitro-1H-indol-2-yl)-methanone] | 7.18 | 0.9 | 100 to 102 | 
O=C(NCc1cc(F)ccc1F)N1CCC(Nc2ccc(CCNC[C@H](O)COc3ccc(O)cc3)cc2)CC1 [Example 37, 4-(4-{2-[(2S)-2-Hydroxy-3-(4-hydroxy-phenoxy)-propylamino]-ethyl}-phenylamino)-piperidine-1-carboxylic Acid 2,5-difluoro-benzylamide] |  | 0.92 | 69 to 72 | 
CCCCCCCCNC(=O)N1CCC(Nc2ccc(CCNC[C@H](O)COc3cccc4[nH]c(=O)[nH]c34)cc2)CC1 [Example 60, 4-(4-{2-[(2S)-2-Hydroxy-3-(2-oxo-2,3-dihydro-1H-benzoimidazol-4-yloxy)-propylamino]-ethyl}-phenylamino)-piperidine-1-carboxylic Acidoctylamide] | 7.92 | 0.45 | 113 to 115 | 
CCCCCCNC(=O)N1CCC(Sc2ccc(CCNC[C@H](O)COc3ccc(O)cc3)cc2)CC1 [Example 41, N-hexyl-4-{[4-(2-{[(2S)-2-hydroxy-3-(4-hydroxyphenoxy)propyl]amino}ethyl)phenyl]sulfanyl}-1-piperidinecarboxamide] | 6.21 | 0.84 | 181 to 195 | 
O=C(Nc1ccccc1)N1CCC(Sc2ccc(CCNC[C@H](O)COc3ccc(O)cc3)cc2)CC1 [Example 40, 4-(4-{2-[(2S)-2-Hydroxy-3-(4-hydroxy-phenoxy)-propylamino]-ethyl}-phenylsulfanyl)-piperidine-1-carboxylic Acid Phenylamide] | 7.00 | 0.9 | 121 | 
